Assay results published in patent publication US20080193563A1, “HARNESSING WNT SIGNALING TO RESTRICT HIV REPLICATION” (priority 2006, published 2008).

Tests used:
[1] = test system: CD4, hMR, CCR1, D6 on U87MG; assay: HIV receptor and chemokine co-receptor expression on U87MG by flow cytometry; format: cell-based, human
Experimental: (§1) U87MG (A) and HFA (B) were left untreated or treated GM-CSF (50 ng/ml) or IFNγ (100 ng/ml) for 24 h. Expression of receptors on the x-axis was measured by flow cytometry. Isotype refers to mouse IgG. Data is representative of three experiments. Error bars represent standard deviation of the mean. (C). IFNγ up-regulates D6 on U87MG cells. U87MG were left untreated or treated with IFNγ. After 3 days, the cells were immunostained with anti-D6 or isotype antibodies. The first histogram (peak) represents isotype control; the dark shaded histogram represents untreated cultures, and the third histogram (peak) represents IFNγ-treated cultures. Data is typical of quadruplet experiments.
(§2) Because IFNγ was a potent cytokine in inducing HIV infection of astrocytes, it was determined whether IFNγ treatment modulated key HIV receptors CD4, human mannose receptor D6 and co-receptors (CCR1, CCR2, CCR3, CXCR4, and CCR5) for HIV infection. U87MG is human mannose receptor (hMR) […] (FIG. 5). However, hMR was not detected on HFA, which may be regulated by the differentiation stage of the HFA (FIG. 5 (B)). CD4 and hMR expression in both U87MG and HFA was not augmented by IFNγ or GM-CSF (FIG. 5(A)-(B)). […] HFA were positive for CXCR4 (12%), but its expression was not augmented by GM-CSF or IFNγ treatment (FIG. 5B). IFNγ was reported to enhance CXCR4 and CCR5 expression on simian adult astrocytes, which is in contrast to data on human fetal astrocytes highlighting a discrepancy between simian adult and human fetal astrocytes. […] Infection of U87MG and HFA with a T-tropic isolate (IIIB), while it was productive, was not enhanced by cytokine pre-treatment. This may be a consequence of the laboratory adapted HIV IIIB, therefore primary T-tropic or dual tropic strains may still be responsive to IFNγ pre-treatment of astrocytes. Recently, the CC chemokine receptor D6 was identified as a functional co-receptor for primary HIV infection of astrocytes.

HIV-Bal in U87MG = assay: Cytokine pre-stimulation and HIV-Bal replication in U87MG, p24 ELISA; format: cell-based; settings: pre-stimulation at 10 ng/ml, p24 day 7
Experimental: (§3) U87MG (A) and HFA (B) were pre-stimulated with increasing doses of either GM-CSF or IFNγ for 24 h followed by HIV-BAL infection for 24 hours. HIV replication was determined by measuring HIV p24 levels by ELISA seven days post-infection. The dotted line represents basal level of HIV infection of astrocytes without cytokine pre-treatment. Data is representative of three experiments performed in quadruplicate. Error bars represent standard deviations of the mean. Asterisks denote significant values (p<0.05) in comparison to untreated cultures as evaluated by analysis of variance.
(§4) To determine if pre-stimulation of astrocytes primes astrocytes, for productive HIV infection, U87MG and HFA were pre-treated for 24 hours with TNFγ, GM-CSF, or IFNγ at various concentrations (0-1000 ng/ml) then infected with HIV-Bal at 10 ng of HIV p24/1×10^6 cells for 24 hours. The cells were then washed extensively or trypsinized to remove bound virus and propagated in the presence of the respective cytokine concentration. HIV infection was monitored by p24 ELISA seven days post-infection. […]
(§5) IFN-γ Treatment and HIV Infection. […] HIV infection was monitored at day 7 postinfection by measuring p24 levels by conventional enzyme-linked immunosorbent assay (ELISA) (National Cancer Institute, Frederick, Md.).

[2] = test system: IFNγ, GM-CSF and TNFγ receptors on U87MG; assay: Cytokine receptor expression on U87MG by flow cytometry; format: cell-based, human; settings: 24-hour treatment
Experimental: U87MG (A) or HFA (B) were left untreated or treated with GM-CSF (50 ng/ml), IFNγ100 ng/ml) or TNFγ100 ng/ml). […] Percent expression of GM-CSF receptor (R), IFNγR, and TNFγR was measured 24 hours post-stimulation by flow cytometry. Data is representative of three experiments. Error bars represent standard deviations of the mean.
Prior to evaluating if GM-CSF, IFNγ, and TNFγ can augment HIV replication of astrocytes, a question was whether U87MG and HFA express the respective cytokine receptors. U87MG and HFA were treated with or without the respective cytokine for 24 hours and cytokine receptor expression was evaluated by flow cytometry. Approximately 35% of U87MG expressed the IFNγ receptor and a low level of GM-CSF and TNFγ receptors (<8%; FIG. 3A). […] Untreated HFA expressed only low levels of IFNγ receptor (6%) and this expression was abrogated with IFNγ treatment. GM-CSF and TNFγ receptors were not expressed on HFA.

CD4, hMR, CXCR4 on HFA = assay: HIV receptor and chemokine co-receptor expression on HFA by flow cytometry; format: cell-based, human
Experimental: as §1, §2

HIV-Bal in HFA = assay: Cytokine pre-stimulation and HIV-Bal replication in human fetal astrocytes, p24 ELISA; format: cell-based; settings: 24 h pre-stimulation, p24 day 7
Experimental: as §3, §4, §5

HIV 302151 (93US151) = assay: Primary HIV isolate 302151 replication in stimulated PBMCs, p24 ELISA; format: cell-based; settings: ALLN at either 5 or 25, p24 day 7, vs non-ALLN treated
HIV IIIB = HIV IIIB replication in stimulated PBMCs, p24 ELISA; format: cell-based; design: dose or concentration left out as unconfirmed; settings: ALLN at either 5 or 25, p24 day 7, vs non-ALLN treated

GM-CSF: cytokine secreted by glial cells; used to pre-stimulate astrocytes
CD4 and hMR expression [1]: not augmented
Up-regulation of CCR1 expression ([1]; 24 h treatment): no effect
Induction of HIV replication (HIV-Bal in U87MG): 5 fold
Effect on respective cytokine receptor expression [2]: neither GM-CSF nor TNFγ treatments had an effect
CD4 and hMR expression (CD4, hMR, CXCR4 on HFA): not augmented
CXCR4 expression (CD4, hMR, CXCR4 on HFA; untreated 12%): not augmented
Induction of HIV replication (HIV-Bal in HFA): no effect

N-acetyl-Leu-Leu-norleucinal [ALLN peptide]
Induction of HIV 30215 replication (HIV 302151 (93US151)): five-fold
Induction of HIV IIIB replication (HIV IIIB): three
